Data as given in US12600725B2 (Memorial Sloan-Kettering Cancer Center, priority 2013, dated 2026).

Columns and labels:
[1] = biological target: Hsp90α (Homo sapiens, UniProt P07900); assay: biochemical; details: FP competition, 6 nM Cy3B-GM, 10 nM protein, 4° C. for 24 h
[2] = biological target: Grp94 (Canis lupus familiaris, UniProt P41148); details: read-out: Grp94; FP competition, 6 nM Cy3B-GM, 10 nM protein, 4° C. for 24 h
Chain of Grp94 (P41148 with tags, fused parts or gaps DELINS287-327GGGG): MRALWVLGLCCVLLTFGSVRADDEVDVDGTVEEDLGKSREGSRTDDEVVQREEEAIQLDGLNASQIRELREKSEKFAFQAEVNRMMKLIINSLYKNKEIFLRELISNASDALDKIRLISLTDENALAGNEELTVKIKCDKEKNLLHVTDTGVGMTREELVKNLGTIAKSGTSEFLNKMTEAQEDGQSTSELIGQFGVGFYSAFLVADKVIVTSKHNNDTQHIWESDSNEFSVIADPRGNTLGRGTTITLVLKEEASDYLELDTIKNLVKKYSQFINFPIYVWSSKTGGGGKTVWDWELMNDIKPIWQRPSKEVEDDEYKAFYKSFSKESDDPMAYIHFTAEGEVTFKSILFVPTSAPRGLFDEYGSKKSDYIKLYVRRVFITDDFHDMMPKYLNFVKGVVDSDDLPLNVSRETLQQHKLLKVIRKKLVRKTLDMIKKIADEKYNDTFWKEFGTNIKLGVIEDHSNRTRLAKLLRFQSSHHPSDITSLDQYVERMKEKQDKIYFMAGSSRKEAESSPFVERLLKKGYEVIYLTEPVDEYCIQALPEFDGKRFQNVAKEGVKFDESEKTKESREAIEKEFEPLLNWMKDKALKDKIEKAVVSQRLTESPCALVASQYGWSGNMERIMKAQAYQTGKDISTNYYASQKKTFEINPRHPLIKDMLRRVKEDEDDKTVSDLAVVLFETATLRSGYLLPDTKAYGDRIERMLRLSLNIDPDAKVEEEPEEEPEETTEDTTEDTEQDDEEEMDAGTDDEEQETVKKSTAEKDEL

C#CCCCn1c(Sc2ccc(-n3cccc3)cc2)nc2c(N)ncnc21 [PDP-I-51-N9]
IC50 [1]: > 50 µM
IC50 [2]: > 10 µM

Cc1ccc(Sc2nc3c(N)ncn(CCCNC(C)C)c-3n2)c(C)c1 [WS-11, 8-((2,4-Dimethylphenyl)thio)-3-(3-(isopropylamino)propyl)-3H-purin-6-amine]
IC50 [1]: > 100 µM
IC50 [2]: 25 µM

C#CCCCn1c(Sc2ccc(C#N)c(Br)c2)nc2c(N)ncnc21 [HJP-III-32, 4-((6-Amino-9-(pent-4-yn-1-yl)-9H-purin-8-yl)thio)-2-bromobenzonitrile]
IC50 [1]: 14.3 µM
IC50 [2]: 4.28 µM

CC(C)NCCCn1c(Sc2cc(Cl)cc(/C=C/C3CC3)c2)nc2c(N)ncnc21 [HJP-VI-64, (E)-8-((3-chloro-5-(2-cyclopropylvinyl)phenyl)thio)-9-(3-(isopropylamino)propyl)-9H-purin-6-amine]
IC50 [1]: > 50 µM
IC50 [2]: 0.24 µM

CC(C)NCCCn1c(Sc2cc(Cl)cc(C#CC3CC3)c2)nc2c(N)ncnc21 [HJP-VI-52, 8-((3-chloro-5-(cyclopropylethynyl)phenyl)thio)-9-(3-(isopropylamino)propyl)-9H-purin-6-amine]
IC50 [1]: > 50 µM
IC50 [2]: 0.18 µM

CC(C)NCCCn1c(Sc2cc(Cl)cc(-c3ccco3)c2)nc2c(N)ncnc21 [HJP-VI-30, 8-((3-chloro-5-(furan-2-yl)phenyl)thio)-9-(3-(isopropylamino)propyl)-9H-purin-6-amine]
IC50 [1]: 16.7 µM
IC50 [2]: 0.32 µM

COc1cccc(-c2cc(Cl)cc(Sc3nc4c(N)ncnc4n3CCCNC(C)C)c2)c1 [HJP-VI-7, 8-((5-chloro-3′-methoxy-[1,1′-biphenyl]-3-yl)thio)-9-(3-(isopropylamino)propyl)-9H-purin-6-amine]
IC50 [1]: 47.5 µM
IC50 [2]: 0.26 µM

C#CCCCn1c(Cc2ccc(Cl)cc2Cl)nc2c(N)ncnc21 [HJP-V-37, 8-(2,4-Dichlorobenzyl)-9-(pent-4-yn-1-yl)-9H-purin-6-amine]
IC50 [1]: > 10 µM
IC50 [2]: 0.7 µM

C#CCCCn1cnc(N)c2nc(Sc3cc(Cl)cc(Cl)c3)nc1-2 [PU-H41]
IC50 [1]: > 100 µM

C#CCCCn1cnc(N)c2nc(Sc3ccc(Br)cc3CC)nc1-2 [PDP-I-54-N3]
IC50 [1]: > 50 µM
IC50 [2]: > 10 µM

C#CCCCn1cnc(N)c2nc(Sc3ccc(Cl)c(Cl)c3)nc1-2 [PDP-I-25-N3]
IC50 [1]: > 50 µM
IC50 [2]: 11.1 µM

C#CCCCn1c(Oc2ccc(Cl)cc2Cl)nc2c(N)ncnc21 [HJP-V-45, 8-(2,4-Dichlorophenoxy)-9-(pent-4-yn-1-yl)-9H-purin-6-amine]
IC50 [1]: > 10 µM
IC50 [2]: 0.5 µM

CC(C)NCCCn1c(Sc2cc(Cl)c(Cl)cc2Cl)nc2c(N)ncnc21 [HJP-V-103-N9, 9-(3-(Isopropylamino)propyl)-8-((2,4,5-trichlorophenyl)thio)-9H-purin-6-amine]
IC50 [1]: 5.8 µM
IC50 [2]: 0.35 µM

C#CCCCn1c(Cc2c(Cl)cccc2Cl)nc2c(N)ncnc21 [HJP-V-38, 8-(2,6-Dichlorobenzyl)-9-(pent-4-yn-1-yl)-9H-purin-6-amine]
IC50 [1]: 14.4 µM
IC50 [2]: 13.8 µM

C#CCN(CCO)CCn1c(Sc2ccc(Cl)cc2Cl)nc2c(N)ncnc21 [HJP-V-110, 2-((2-(6-Amino-8-((2,4-dichlorophenyl)thio)-9H-purin-9-yl)ethyl)(prop-2-yn-1-yl)amino)ethanol]
IC50 [1]: > 50 µM
IC50 [2]: 0.6 µM

C#CCCCn1c(C(=O)c2ccc(Cl)cc2Cl)nc2c(N)ncnc21 [HJP-V-37T, (6-Amino-9-(pent-4-yn-1-yl)-9H-purin-8-yl)(2,4-dichlorophenyl)methanone]
IC50 [1]: > 25 µM
IC50 [2]: 0.13 to 0.17 µM

CC(C)=Cc1cc(Cl)cc(Sc2nc3c(N)ncnc3n2CCCNC(C)C)c1 [HJP-VI-62, 8-((3-chloro-5-(2-methylprop-1-en-1-yl)phenyl)thio)-9-(3-(isopropylamino)propyl)-9H-purin-6-amine]
IC50 [1]: > 50 µM
IC50 [2]: 0.28 µM

Nc1ncnc2c1nc(Sc1ccc(Cl)cc1Cl)n2CCc1cccnc1 [HJP-V-116, 8-((2,4-Dichlorophenyl)thio)-9-(2-(pyridin-3-yl)ethyl)-9H-purin-6-amine]
IC50 [1]: > 50 µM
IC50 [2]: 0.12 to 0.3 µM

CC(C)NCCCn1c(Sc2cccc3ccccc23)nc2c(N)nccc21 [SO-IV-03, 1-(3-(isopropylamino)propyl)-2-(naphthalen-1-ylthio)-1H-imidazo[4,5-c]pyridin-4-amine]
IC50 [1]: > 50 µM
IC50 [2]: > 5 µM

C#CCCCn1cnc(N)c2nc(Sc3cn(Cc4ccc(OC)cc4)c4ncc(Br)cc34)nc1-2 [PDP-I-58-N3]
IC50 [1]: > 50 µM
IC50 [2]: > 10 µM

CC(C)NCCCn1c(Sc2cc(Cl)cc(Cl)c2)nc2c(N)nc(F)nc21 [HJP-VI-69, 8-((3,5-dichlorophenyl)thio)-2-fluoro-9-(3-(isopropylamino)propyl)-9H-purin-6-amine]
IC50 [2]: 0.135 µM

C#CCCCn1c(C(=O)c2cc(Cl)cc(Cl)c2)nc2c(N)ncnc21 [HJP-V-39T, (6-Amino-9-(pent-4-yn-1-yl)-9H-purin-8-yl)(3,5-dichlorophenyl)methanone]
IC50 [1]: > 10 µM

CC(C)NCCCn1c(Sc2ccc(Cl)cc2[N+](=O)[O-])nc2c(N)ncnc21 [HJP-VI-32, 8-((4-chloro-2-nitrophenyl)thio)-9-(3-(isopropylamino)propyl)-9H-purin-6-amine]
IC50 [1]: 14.2 µM
IC50 [2]: > 5 µM

C#CCCCn1cnc(N)c2nc(Sc3cccc4ccccc34)nc1-2 [PDP-I-16-N3]
IC50 [1]: > 100 µM
IC50 [2]: > 5 µM

C#CCCCn1c(Sc2ccc(Cl)cc2)nc2c(N)ncnc21 [PU-H7]
IC50 [1]: > 100 µM
IC50 [2]: 1.5 ± 0.2 µM

CC(O)C#Cc1cc(Cl)cc(Sc2nc3c(N)ncnc3n2CCCNC(C)C)c1 (centres unmarked) [HJP-VI-59, 4-(3-((6-amino-9-(3-(isopropylamino)propyl)-9H-purin-8-yl)thio)-5-chlorophenyl)but-3-yn-2-ol]
IC50 [1]: > 50 µM
IC50 [2]: 7.4 µM

CC(O)CNCCn1c(Sc2ccc(Cl)cc2Cl)nc2c(N)ncnc21 (centres unmarked) [HJP-V-82, 1-((2-(6-Amino-8-((2,4-dichlorophenyl)thio)-9H-purin-9-yl)ethyl)amino)propan-2-ol]
IC50 [1]: 31.3 µM
IC50 [2]: 0.23 µM

Nc1ncnc2c1nc(Sc1cc(Cl)cc(Cl)c1)n2CCCN1CC(O)C1 [HJP-V-134, 1-(3-(6-amino-8-((3,5-dichlorophenyl)thio)-9H-purin-9-yl)propyl)azetidin-3-ol]
IC50 [1]: > 10 µM
IC50 [2]: 0.38 µM

CC(C)NCCCn1c(Sc2ccc(Cl)cc2F)nc2c(N)ncnc21 [HJP-VI-23, 8-((4-chloro-2-fluorophenyl)thio)-9-(3-(isopropylamino)propyl)-9H-purin-6-amine]
IC50 [1]: > 50 µM
IC50 [2]: 1.5 µM

CC(C)C#Cc1cc(Cl)cc(Sc2nc3c(N)ncnc3n2CCCNC(C)C)c1 [HJP-VI-51, 8-((3-chloro-5-(3-methylbut-1-yn-1-yl)phenyl)thio)-9-(3-(isopropylamino)propyl)-9H-purin-6-amine]
IC50 [1]: > 50 µM
IC50 [2]: 1.2 µM

CC(C)NCCCn1c(Sc2cc(Cl)cc(C#CCO)c2)nc2c(N)ncnc21 [HJP-VI-58, 3-(3-((6-amino-9-(3-(isopropylamino)propyl)-9H-purin-8-yl)thio)-5-chlorophenyl)prop-2-yn-1-ol]
IC50 [1]: > 50 µM
IC50 [2]: 5.8 µM

C#CCCCn1c(Cc2cc(Cl)cc(Cl)c2)nc2c(N)ncnc21 [HJP-V-39, 8-(3,5-Dichlorobenzyl)-9-(pent-4-yn-1-yl)-9H-purin-6-amine]
IC50 [1]: > 10 µM
IC50 [2]: 0.5 µM

Nc1ncnc2c1nc(Sc1ccc(Cl)cc1Cl)n2CCc1ccccn1 [HJP-V-93, 8-((2,4-Dichlorophenyl)thio)-9-(2-(pyridin-2-yl)ethyl)-9H-purin-6-amine]
IC50 [1]: > 50 µM
IC50 [2]: 1.9 µM

CC(C)NCCCn1c(Sc2cc(C(F)(F)F)cc(C(F)(F)F)c2)nc2c(N)ncnc21 [WS-14, 8-((3,5-Bis(trifluoromethyl)phenyl)thio)-9-(3-(isopropylamino)propyl)-9H-purin-6-amine]
IC50 [1]: 8.56 µM
IC50 [2]: 2.43 µM

C#CCCn1cnc(N)c2nc(Sc3cc(Cl)cc(Cl)c3)nc1-2 [PDP-I-14-N3, 3-(But-3-yn-1-yl)-8-((3,5-dichlorophenyl)thio)-3H-purin-6-amine]
IC50 [1]: > 50 µM
IC50 [2]: > 5 µM

Cc1ccc(-c2cc(Cl)cc(Sc3nc4c(N)ncnc4n3CCCNC(C)C)c2)o1 [HJP-VI-38, 8-((3-chloro-5-(5-methylfuran-2-yl)phenyl)thio)-9-(3-(isopropylamino)propyl)-9H-purin-6-amine]
IC50 [1]: 25.9 µM
IC50 [2]: 0.75 µM

CC(C)NCCCn1c(Sc2ccc(Cl)cc2N)nc2c(N)ncnc21 [HJP-VI-34, 8-((2-amino-4-chlorophenyl)thio)-9-(3-(isopropylamino)propyl)-9H-purin-6-amine]
IC50 [1]: > 50 µM

CC(C)NCCCn1c(Sc2ccc(F)cc2Cl)nc2c(N)ncnc21 [HJP-VI-25, 8-((2-chloro-4-fluorophenyl)thio)-9-(3-(isopropylamino)propyl)-9H-purin-6-amine]
IC50 [1]: > 50 µM

CC(C)NCCCn1c(Sc2cc(Cl)cc(Cl)c2I)nc2c(N)ncnc21 [HJP-V-145]
IC50 [2]: 0.68 µM

C/C=C(\C)c1cc(Cl)cc(Sc2nc3c(N)ncnc3n2CCCNC(C)C)c1 [HJP-VI-79, (E)-8-((3-(but-2-en-2-yl)-5-chlorophenyl)thio)-9-(3-(isopropylamino)propyl)-9H-purin-6-amine]
IC50 [2]: 0.124 µM

C#CCCCn1c(Sc2cc(C#N)cc(C#N)c2)nc2c(N)ncnc21 [HJP-III-26, 5-((6-Amino-9-(pent-4-yn-1-yl)-9H-purin-8-yl)thio)isophthalonitrile]
IC50 [1]: 60.3 µM

C#CCC(CC)n1c(Sc2ccc(Cl)cc2Cl)nc2c(N)ncnc21 (centres unmarked) [HJP-V-117, 8-((2,4-dichlorophenyl)thio)-9-(hex-5-yn-3-yl)-9H-purin-6-amine]
IC50 [2]: 0.92 µM

CC#Cc1cc(Cl)cc(Sc2nc3c(N)ncnc3n2CCCNC(C)C)c1 [HJP-VI-50, 8-((3-chloro-5-(prop-1-yn-1-yl)phenyl)thio)-9-(3-(isopropylamino)propyl)-9H-purin-6-amine]
IC50 [1]: > 50 µM

C#CCCCn1c(Cc2cccc(Cl)c2Cl)nc2c(N)ncnc21 [HJP-V-55, 8-(2,3-Dichlorobenzyl)-9-(pent-4-yn-1-yl)-9H-purin-6-amine]
IC50 [1]: > 10 µM
